Like-named read-outs stand apart in the source and are kept apart here. Numbered stars: 1 amine (or outer) side, 2 acyl side, 3 side chain; on linkers, the order of the positions; unused ones are H or OH. Bridge positions count the residues as written; N and C are the ends. Square brackets hold non-standard residues; d marks the D form. Peptide text beside a SMILES is read from it. I, II: the chains in the order shown. Hexamethylenediamine = C(CCCN[*:2])CCN[*:1]; Dip = N[C@H](C(=O)O)C(c1ccccc1)c1ccccc1; Chg = N[C@H](C(=O)O)C1CCCCC1; NMeA = CN[C@@H](C)C(=O)O
Columns and labels:
EBC1-shPAK1 cells = experiment: pharmarray viability screen, 200 compound library, with or without PAK1 knockdown (CellTiter-Glo); assay type: cell-based, human; conditions: for EC50: Homo sapiens
SK-MES-1 = experiment: Cell Titer Glo viability after PAK1 siRNA and BV6; assay type: cell-based, human; conditions: transient PAK1 siRNA followed by 5 μM BV6
Description: (§1) FIG. 7—(A) Combinatorial accumulation of cleaved PARP and caspase-3 by PAK1 and IAP antagonism. Cells were incubated with Dox and […] for indicated time points, lysed and then used for Western blot analysis (B) Dual PAK1 and IAP inhibition results in a synergistic decrease in viability of SK-MES-1 (squamous subtype) and NCI-H441 (adenocarcinoma subtype) NSCLC cells. Cellular ATP consumption was determined via Cell Titer Glo assay following transient siRNA-mediated inhibition of PAK1 and 5 μM BV6 treatment as indicated.
(§2) The prosurvival activity of IAP proteins is antagonized by the second mitochondrial activator of caspases (SMAC) (C. Du et al., Cell 2000 102:33-42; A. M. Verhagen, et al. Cell 2000 102:43-53) and a number of antagonists have been described that mimic SMAC amino-terminal peptides to disrupt the association of IAP with SMAC and activated caspase-9 (K. Zobel et al., ACS Chem. Biol. 2006 1:525-533; E. Varfolomeev et al., Cell 2007 131:669-681). In particular, BV6 (C. Ndubaku et al., Future Med. Chem. 2009 1(8):1509) represents one such class of small molecule antagonist that binds to baculovirus TAP repeat (BIR) domains and promotes rapid auto-ubiquitination and proteasomal degradation of c-TAP 1 and cIAP-2 (Zobel supra). […]

NCI-H441 = experiment: Cell Titer Glo viability after PAK1 siRNA and BV6; assay type: cell-based, human; conditions: transient PAK1 siRNA followed by 5 μM BV6
Description: as §1, §2

[1] = tested on: SKMES-1, Calu-6, Cal-120 cells; experiment: CellTiter-Glo viability after PAK1 and PAK2 siRNA plus MEK and PI3K inhibitors; assay type: cell-based, human; conditions: with PAK1 and PAK2 siRNA, 3 days
Description: FIG. 11—Combinatorial effect of PAK1, PAK2, MEK and PI3K inhibition on tumor cell viability. CellTiter-Glo® (CTG) assays of cellular viability were performed following PAK1 and PAK2 siRNA transfection and compound treatment for 3 days, as indicated.
Taken together, these studies provide strong preclinical support that breast and NSCLC may provide several opportunities for rational combination therapies with PAK1 inhibitors. In one embodiment of the present invention there is provided a method of treating tumors comprising contacting the tumor with a PAK 1 inhibitor and a second anti-hyperproliferative compound.

MDA-MB-175 cells = experiment: Annexin V/PI fluorescence-activated cell sorting after IPA-3 for 48 h; assay type: cell-based, human
Description: FIG. 1-Analysis of PAK1 genomic amplification and functional role in human breast tumors. (A) Genomic Identification of Significant Targets in Cancer (GISTIC) analysis of 11q13 copy number gains. Points are proportionately spaced and arranged in genome order. Vertical line represents chromosome location of the PAK1 gene. […] (B) PAK1 DNA copy and mRNA expression dot plot depicts the relationship of DNA copy number to the 226507 at Affymetrix MAS 5.0 signal for 51 tumor samples. The Pearson correlation statistic (0.75) is shown for the plot. The solid line represents the best-fit line through these points. (C) Increasing proportion of Annexin V-positive cells following knockdown of PAK1 expression is shown for 3 breast cancer cell lines with focal PAK1 genomic amplification, MDA-MB-175, HCC1500 and MDA-MB-134 IV. Cells were harvested 3-5 days following transient transfection of pooled siRNA oligonucleotides. (D) Fluorescence-activated cell sorting analysis for Annexin V/PI. MDA-MB-175 cells were cultured in the presence or absence of IPA-3 for 48 h. Annexin V/PI staining was then done to assess apoptosis/necrosis. […]
To ascertain the role of PAK1 in cell survival, the quantity of cytoplasmic histone-associated DNA fragments was quantified using the Cell Death Detection ELISA Plus kit from Roche (Mannheim, Germany). […]

EBC-1 cells [2] = experiment: cell killing by pharmacological PAK or Rac1 inhibitors combined with IAP inhibition; assay type: cell-based, human; conditions: pharmacological inhibitors of PAK or Rac1 catalytic activity; FIG. 7A
Description: The prosurvival activity of IAP proteins is antagonized by the second mitochondrial activator of caspases (SMAC) (C. Du et al., Cell 2000 102:33-42; A. M. Verhagen, et al. Cell 2000 102:43-53) and a number of antagonists have been described that mimic SMAC amino-terminal peptides to disrupt the association of IAP with SMAC and activated caspase-9 (K. Zobel et al., ACS Chem. Biol. 2006 1:525-533; E. Varfolomeev et al., Cell 2007 131:669-681). In particular, BV6 (C. Ndubaku et al., Future Med. Chem. 2009 1(8):1509) represents one such class of small molecule antagonist that binds to baculovirus TAP repeat (BIR) domains and promotes rapid auto-ubiquitination and proteasomal degradation of c-TAP 1 and cIAP-2 (Zobel supra). Consistent with the small molecule screening data, strong combinatorial activity was confirmed for dual inhibition of PAK1 and IAP in EBC-1 cells (FIG. 5A). […] To further explore this apparent synergy we investigated possible molecular mechanisms of PAK1 and IAP inhibition on the induction of apoptosis. […] Lastly, additional NSCLC cell lines, including those that are only minimally responsive to the activity of either single agent, were examined for anti-tumor efficacy resulting from combined inhibition of PAK1 and IAP.

EBC-1 cells [3] = experiment: PF-3758309 with BV6, in vitro combination efficacy, 4-day CellTiterGlo viability assay (Calcusyn); assay type: cell-based, human; conditions: Chou and Talalay method, CI ≦0.3 = strong synergy
Description: FIG. 10—Combination of ATP-competitive pan-PAK inhibitor PF-3758309 (B. W. Murray et al. Proc. Nat. Acad. Sci. USA 2010 107(20):9446-9471 and IAP small molecule antagonist results in apoptosis of squamous NSCLC cells. (A) Catalytic inhibition of PAK1 via PF-3758309 treatment was tested with BV6 for in vitro combination efficacy in EBC-1 cells using a 4-day CellTiterGlo viability assay. Calcusyn, a program utilizing the Chou and Talalay (Chou T C, Talalay P. Quantitative analysis of dose-effect relationships: the combined effects of multiple drugs or enzyme inhibitors. Adv. Enzyme Regul. 1984; 22:27-55) method of calculating synergy, was used to calculate the combination index and, thus, determine the level of synergy. Strong synergy, as indicated by combination index (CI) values ≦0.3, was observed (CI=0.113).
A determination of a synergistic interaction between a PAK1 inhibitor and a second anti-hyperproliferative agent may be based on the results obtained from the assays described herein. The combinations provided by this invention have been evaluated in several assay systems, and the data can be analyzed utilizing a standard program for quantifying synergism, additivism, and antagonism among anticancer agents. The program preferably utilized is that described by Chou and Talalay, in “New Avenues in Developmental Cancer Chemotherapy,” Academic Press, 1987, Chapter 2. […]

[4] = tested on: Cells transfected with XIAP-specific siRNA; experiment: Cell Titer Glo viability after XIAP siRNA and PAK SMI; assay type: cell-based; conditions: XIAP siRNA 48 h, then PAK SMI 72 h; p<0.0001
Description: Cells were transfected with non-targeting control (NTC) or XIAP-specific siRNA oligonucleotides for 48 h prior to treatment with DMSO or PAK SMI as indicated for an additional 72 h. Cell viability was determined via Cell Titer Glo assay and results represent mean±standard deviation from three experiments. (B) Combined antagonism of XIAP and PAK1 promotes efficient cleavage of PARP and caspase-3. XIAP siRNA oligonucleotides were transfected for 72 h prior to treatment with DMSO or […] PAK SMI.

[5] = single agent vs combination with PAK1 knockdown
[6] = 72 h, read-out: Single agent EC50
[7] = EBC-1-shPAK1 cells without PAK1 knockdown, 72 hr compound treatment, read-out: Single agent EC50
[8] = PAK1 knockdown shRNA (300 ng/mL doxycycline 3 days prior) and compound, 72 hr, read-out: Combo PAKi EC50

O=c1[nH]c2ccccc2n1C1CCN(Cc2ccc(-c3nc4cc5[nH]cnc5cc4nc3-c3ccccc3)cc2)CC1 [Akt inhibitor VIII]
Fold change in EC50 (EBC1-shPAK1 cells; [5]): 1.58

CN[C@@H](C)C(=O)N[C@H](C(=O)N1CCC[C@H]1C(=O)N[C@H](C(=O)NCCCCCCNC(=O)[C@@H](NC(=O)[C@@H]1CCCN1C(=O)[C@@H](NC(=O)[C@H](C)NC)C1CCCCC1)C(c1ccccc1)c1ccccc1)C(c1ccccc1)c1ccccc1)C1CCCCC1 [BV6] (I: H-[NMeA][Chg]P[Dip] / II: H-[NMeA][Chg]P[Dip]; linker I:C-II:C via Hexamethylenediamine)
Fold change in EC50 (EBC1-shPAK1 cells; [5]): 57.54
cell viability (SK-MES-1): significant reduction
cell viability (NCI-H441): significant reduction

CS(=O)(=O)N1CCN(Cc2cc3nc(-c4cccc5[nH]ncc45)nc(N4CCOCC4)c3s2)CC1 [GDC-0941]
combinatorial efficacy, reduced cellular viability [1]: Combinatorial efficacy

Oc1ccc2ccccc2c1SSc1c(O)ccc2ccccc12 [IPA-3]
induction of apoptosis, fold increase (Annexin-V/propidium iodide) (MDA-MB-175 cells): 7 fold
cell killing combined with IAP inhibition (EBC-1 cells [2]): enhanced cell killing

CCN(CC)CCCC(C)Nc1nc(C)cc(Nc2ccc3nc(C)cc(N)c3c2)n1 (stereo not drawn) [NSC23766]
cell killing combined with IAP inhibition (EBC-1 cells [2]): enhanced cell killing

Cc1nc(Nc2n[nH]c3c2CN(C(=O)N[C@H](CN(C)C)c2ccccc2)C3(C)C)c2sccc2n1 [PF-3758309]
combination index (CI) (EBC-1 cells [3]): 0.113
cell killing combined with IAP inhibition (EBC-1 cells [2]): enhanced cell killing
proapoptotic activity with XIAP down-regulation [4]: potentiates the proapoptotic activity

N#CC(=C(/N)Sc1ccccc1N)/C(C#N)=C(\N)Sc1ccccc1N [U0126]
Fold change in EC50 (EBC1-shPAK1 cells): 8.45
EC50 (EBC1-shPAK1 cells; [6]): 19.5 µM
EC50 (EBC1-shPAK1 cells; read-out: Combo PAKi EC50): 2.3 µM

COc1cc2c(Nc3ccc(Br)cc3F)ncnc2cc1OCC1CCN(C)CC1 [ZD6474]
EC50 (EBC1-shPAK1 cells; [7]): ≥ 20 µM
EC50 (EBC1-shPAK1 cells; [8]): 6.88 µM
Fold change in EC50 (EBC1-shPAK1 cells; [5]): 2.91

CN(C)c1nc(N(C)C)nc(N(C)C)n1 [altretamine]
EC50 (EBC1-shPAK1 cells; [7]): ≥ 20 µM
EC50 (EBC1-shPAK1 cells; [8]): 3.94 µM
Fold change in EC50 (EBC1-shPAK1 cells; [5]): 5.07

Cc1nc(Nc2ncc(C(=O)Nc3c(C)cccc3Cl)s2)cc(N2CCN(CCO)CC2)n1 [dasatinib]
EC50 (EBC1-shPAK1 cells; [7]): 8.29 µM
EC50 (EBC1-shPAK1 cells; [8]): 1.53 µM
Fold change in EC50 (EBC1-shPAK1 cells; [5]): 5.43

C#Cc1cccc(Nc2ncnc3cc(OCCOC)c(OCCOC)cc23)c1 [erlotinib]
Fold change in EC50 (EBC1-shPAK1 cells): 15.02
EC50 (EBC1-shPAK1 cells; [6]): ≥ 20 µM
EC50 (EBC1-shPAK1 cells; read-out: Combo PAKi EC50): 1.56 µM

CS(=O)(=O)CCNCc1ccc(-c2ccc3ncnc(Nc4ccc(OCc5cccc(F)c5)c(Cl)c4)c3c2)o1 [lapatinib]
EC50 (EBC1-shPAK1 cells; [7]): 6.31 µM
EC50 (EBC1-shPAK1 cells; [8]): 0.86 µM
Fold change in EC50 (EBC1-shPAK1 cells; [5]): 7.34

O=C1[O][Pt]2([NH][C@@H]3CCCC[C@H]3[NH]2)[O]C1=O [oxaliplatin]
Fold change in EC50 (EBC1-shPAK1 cells): 4.23

Reference: patent US20140038959A1, “METHODS OF TREATING TUMORS” (Genentech, Inc., priority 2011, published 2014)
